From article PMC9951290, “Comprehensive Structure–Activity Relationship Studies of Cepafungin Enabled by Biocatalytic C–H Oxidations” (ACS Central Science, 2023)
Where two headings read alike, the source gives them in different places.

Assays:
[1] = Macrolactamisation of unprotected diamino acid: Lys epsilon-NH2 to vinylogous amino acid CO2H, DMTMMT (BF4 salt, 1.5 equiv), DIPEA (4 equiv); free alpha-NH2 and OH present; details: the molecule shown is the open-chain precursor, 12-membered ring, DMF, 1.0 mM, 25.0 °C
RPMI 8226 cells [2] = experiment: Cytotoxicity measurement (WST-1), RPMI 8226; assay type: cell-based, human; details: for Potency in cytotoxicity screening relative to natural product 1: RPMI 8226, 30 and 100 nM compound concentration, n = 3, Figure 4B; for EC50: Homo sapiens, RPMI 8226, 48 hours, WST-1, n = 3, read-out: Cytotoxicity EC50 (cell viability)
Protocol: (§1) Cellular assays were performed on human multiple myeloma RPMI 8226 cells (Figure 4). First, relative inhibition of proteasome subunits β5 and β2 for all analogues and the natural product was measured at 30 nM compound concentration. Following incubation of the compounds in cell culture for 6 h, cells were lysed, and fluorogenic subunit-specific peptide substrates Suc-LLVY-AMC (β5) or Ac-RLR-AMC (β2) were incubated with the lysates; fluorescence readings provided relative proteasome activity levels in comparison with DMSO (Figure 4A). Next, cytotoxicity screening was performed at 30 and 100 nM concentrations for sufficient coverage of dynamic range (Figure 4B). […] Therefore, the improved cytotoxicity of phenyl cepafungin 50 likely results from a more pronounced loss of β5 function in RPMI 8226 cells. This drastic increase in proteasome inhibition may be due to π-stacking of the lipid tail phenyl ring with the β6 subunit residues Tyr106 and/or Tyr5. The β2 subunit-bound natural product has residues Tyr102 and Phe103 on the adjacent β3 subunit oriented further away from the terminal lipid methyl groups, and presumably would not facilitate π-stacking to the extent possible at the adjacent β6 subunit (see Figure 3 and Figure S4). […] These combined modifications were made in hopes that the effects of both substitutions would be additive. […] The presence of a Thr residue next to the cepafungin macrocycle appears to be favored over the ethyl side chain of desoxy-Thr analogue 44 as indicated by cytotoxicity and hydrogen-bonding seen in the cepafungin-bound crystal structure (Figures 3 and 4B).
AMC (β5) or Ac-RLR-AMC (β2). […]
Cytotoxicity Measurements
in DMSO) or DMSO and cultured for 48 hours. Toxicity was determined using the WST-1 assay
(Roche) according to the protocol of the manufacturer. (n = 3)
Figure S1. […]

Mino BtzR = details: Cell line: Mino BtzR; Figure 2; cited from earlier work
Mino [3] = details: Cell line: Mino; Figure 2; cited from earlier work
MM.1S = details: Cell line: MM.1S; Figure 2; cited from earlier work
MM.1S BtzR = details: Cell line: MM.1S BtzR; Figure 2; cited from earlier work
JeKo-1 = experiment: Cytotoxicity measurement (WST-1), JeKo-1; details: Homo sapiens, JeKo-1, 48 h, read-out: Cytotoxicity EC50
Protocol: (§2) Cells of the indicated cell line origin were seeded in a 96-well plate (20,000 cells/well) in
(§3) cell culture media supplemented with indicated compounds at given concentrations (1,000x stock
(§4) in DMSO) or DMSO and cultured for 48 hours. Toxicity was determined using the WST-1 assay (Roche) according to the protocol of the manufacturer. (n = 3)

RPMI 8226 cells [4] = details: ∼3700 proteins quantified, 19 in common; cited from earlier work
U266 = experiment: Cytotoxicity measurement (WST-1), U266; details: Homo sapiens, U-266, 48 h, read-out: Cytotoxicity EC50
Protocol: as §2, §3, §4

RPMI 8226 cells [5] = experiment: Global proteomics analysis via LC-MS/MS of RPMI 8226 cells treated with BTZ or 50 (Table S5); assay type: cell-based, human
Protocol: Finally, we evaluated the changes in global protein expression following treatment of RPMI 8226 cells with either BTZ or 50. […] Following treatment, cells were collected via centrifugation, and protein lysates were digested with trypsin and analyzed using LC-MS/MS.
Global proteomics analysis via LC-MS/MS.
RPMI 8226 cells were seeded in a 6-well plate (1,000,000 cells/well) in cell culture media supplemented with DMSO, BTZ (2.5 nM, 1000x stock in DMSO), or 50 (3 nM, 1000x stock in DMSO) for 14 h. Cells were centrifuged (3,000 x g 5 min 4°C) and washed twice with PBS. Cell pellets were resuspended in PBS and protein concentration was determined using the Bradford assay (Bio-Rad). Urea (9 M in 100 mM NH4HCO3 pH 8) was added to a final concentration of 6 M to 30 µg lysate (15 µL PBS). […] Peptides were resuspended in water with 0.1 % FA and analyzed using EASY-nLC 1200 nano-UHPLC coupled to Q Exactive HF-X Quadrupole-Orbitrap mass spectrometer (Thermo Scientific). […]
The MS data were analyzed with MaxQuant (V2.0.3.0) and searched against the human proteome (Uniprot) and a common list of contaminants (included in MaxQuant). […] The minimum peptide length was set to 6 amino acids and peptide re-quantification and “match between runs” was enabled. […]

HBL2 = experiment: Cytotoxicity measurement (WST-1), HBL2; details: Homo sapiens, HBL2, 48 h, read-out: Cytotoxicity EC50
Protocol: as §2, §3, §4

RPMI 8226 cells [6] = experiment: Cytotoxicity measurement (WST-1), RPMI 8226; assay type: cell-based; details: Homo sapiens, 24 h; RPMI 8226, used as treatment concentration for proteomics
H929 = experiment: Cytotoxicity measurement (WST-1), H929; details: Homo sapiens, NCI-H929, 48 h, read-out: Cytotoxicity EC50
Protocol: as §2, §3, §4

Mino [7] = experiment: Cytotoxicity measurement (WST-1), Mino; details: Homo sapiens, 48 h, read-out: Cytotoxicity EC50
Protocol: as §2, §3, §4

proteasome subunit β5 [8] = target: T1, proteasome subunit β5 (Homo sapiens, UniProt P28074); details: in situ in RPMI 8226 cells; preliminary analogue series, Figure 2; cited from earlier work
T1 construct: Following incubation of the compounds in cell culture for 6 h, cells were lysed; endogenous in cells; host or cells: RPMI 8226 (human multiple myeloma)

proteasome subunit β5 [9] = target: T1, proteasome subunit β5; experiment: In situ β5 proteasome activity assay (Suc-LLVY-AMC) in RPMI 8226 cells; assay type: cell-based
Text: A preliminary series of analogues, including the natural product glidobactin A (2), were synthesized by largely the same route (Scheme 2B, Figure 2).[36] Desoxycepafungin (38) was synthesized from Boc-Lys(Boc)-OH by peptide couplings/macrocyclization to assess the role of the macrocycle hydroxylation in 1 toward proteasome inhibition. The saturated cepafungin analogue 39 was designed to address the possible role of rigidity in the tail fragment induced by the diene seen in many natural cepafungins and glidobactins. An analogue bearing unsaturation at its macrocyclic lysine was envisioned to provide a head-to-head comparison between the cepafungin and syringolin macrocyclic core. […] Proteasome subunit β5 IC50 values were determined in situ in RPMI 8226 cells. In close agreement with prior measurement of β5 IC50 for natural 1 and 2 in purified yeast proteasome,[12] in our hands the additional branching methyl in 1 indeed leads to ca. 5-fold improved IC50 compared to 2 in RPMI 8226 cells. […] Likewise, saturation of the fatty acid fragment in 39 causes ca. 14-fold decrease in β5 inhibition. This preliminary series of analogues highlighted that the macrocyclic hydroxylation, fatty acid unsaturation, and terminal lipid functionality are critical for potent proteasome inhibitory activity.
as §1, with “and 4B). […]” for “and 4B).”
Mammalian cell culture and lysate preparation
Mammalian cells were maintained in RPMI-1640 media. All media were supplemented with 10% fetal bovine serum (FBS, Life Technologies Cat# 10437028), non-essential amino acids (Sigma-Aldrich Cat# M7145) and penicillin/streptomycin (Sigma-Aldrich Cat# P4333). Cells were grown at 37 °C under 5% CO2 atmosphere. […] Cells were lysed by needle sonication to obtain cell lysates and protein concentration was determined using the […]
fluorescence was read at A360ex/A460em. […]

`C[C@@H](/C=C/C(=O)O)NC(=O)[C@@H](N)C[C@@H](O)CCN` showed a ring closure, yield by NMR [1] of 63%.

In the case of `CC(C)CCCCC/C=C/C=C/C(=O)N[C@H](C(=O)N[C@H]1C[C@H](O)CCNC(=O)/C=C/[C@H](C)NC1=O)[C@@H](C)O` [compound 40, epi-4-OH cepafungin], the “Potency in cytotoxicity screening relative to natural product 1” value (RPMI 8226 cells [2]) is reported as “nearly inactive at both concentrations”.

For `CCCCCCCCCCCCNC(=O)N[C@H](C(=O)N[C@H]1/C=C/CCNC(=O)/C=C/[C@H](C)NC1=O)C(C)C` [compound 37, TIR-199], the EC50 (Mino BtzR) is listed as 130 ± 2 nM, the EC50 (Mino [3]) is listed as 64 ± 2.1 nM and the EC50 (MM.1S) is listed as 48 ± 8.7 nM. For the same molecule, the EC50 (MM.1S BtzR) was 81 ± 5.8 nM.

With `CC(C)CCCCC/C=C/C=C/C(=O)N[C@H](C(=O)N[C@H]1CC(=O)CCNC(=O)/C=C/[C@H](C)NC1=O)[C@@H](C)O` [compound 42, keto cepafungin] the “Potency in cytotoxicity screening relative to natural product 1” value (RPMI 8226 cells [2]) was “potency approaching that of the natural product”.

In the case of `CC(C)C[C@H](NC(=O)[C@H](Cc1ccccc1)NC(=O)c1cnccn1)B(O)O` [bortezomib], the EC50 (JeKo-1) is given as 7 ± 0.5 nM, the “number of proteins upregulated compared to DMSO control” value (RPMI 8226 cells [4]) is given as 25 proteins and the EC50 (U266) is given as 3.1 ± 0.1 nM. For the same molecule, the “overlap of upregulated proteins commonly affected by BTZ and 50” value (RPMI 8226 cells [5]; 17 common proteins) was 59%, the “number of proteins with statistically significant increase in expression” value (RPMI 8226 cells [5]; RPMI 8226, 14 h, 2.5 nM BTZ or 3 nM 50 vs DMSO, out of 4080 quantified, FDR 5%, S0 0.1) was 29 proteins and the EC50 (HBL2) was 2.5 ± 0.4 nM. For the same molecule, the EC50 (Mino BtzR) was 23 ± 1.1 nM, the EC50 (Mino [3]) was 10 ± 0.4 nM and the EC50 (MM.1S) was 2.3 ± 0.03 nM. It also gave an EC50 (RPMI 8226 cells [6]) of 2.5 nM, an EC50 (H929) of 1.5 ± 0.2 nM and an EC50 (Mino [7]) of 7.4 ± 0.3 nM. The EC50 (MM.1S BtzR) was 28 ± 0.6 nM and the EC50 (RPMI 8226 cells [2]) was 2.2 ± 0.1 nM.

For `CC(C)CCCCC/C=C/C=C/C(=O)N[C@H](C(=O)N[C@H]1CCCCNC(=O)/C=C/[C@H](C)NC1=O)[C@@H](C)O` [compound 38, Desoxycepafungin], the IC50 (proteasome subunit β5 [8]) is given as 184 ± 29 nM and the “fold higher IC50 than 1” value (proteasome subunit β5 [9]; β5, RPMI 8226 cells) is given as “ca. 11 fold”.

`C[C@@H](/C=C/C(=O)O)NC(=O)[C@@H](N)[C@@H](O)CCCN` showed a ring closure, yield by NMR ([1]; 36.0 h) of 47%.

With `CC(C)CCCCC/C=C/C=C/C(=O)N[C@H](C(=O)N[C@@H]1C(=O)N[C@@H](C)/C=C/C(=O)NCCC[C@@H]1O)[C@@H](C)O` [compound 41, 3-OH cepafungin] the “Potency in cytotoxicity screening relative to natural product 1” value (RPMI 8226 cells [2]) was “nearly inactive at both concentrations”.

With `CC(C)[C@H]1/C=C/C(=O)NCC[C@H](O)C[C@H](NC(=O)[C@@H](NC(=O)/C=C/C=C/CCCCCc2ccccc2)[C@@H](C)O)C(=O)N1` [S39] the EC50 (RPMI 8226 cells [2]) was 4.5 nM.

For `CC(C)CCCCC/C=C/C=C/C(=O)N[C@H](C(=O)N[C@H]1C[C@@H](O)CCNC(=O)/C=C/[C@H](C(C)C)NC1=O)[C@@H](C)O` [compound 43, valinyl cepafungin], the “Potency in cytotoxicity screening relative to natural product 1” value (RPMI 8226 cells [2]) was “more potent than the parent natural product 1”.

In the case of `C[C@@H](/C=C/C(=O)O)NC(=O)[C@@H](N)CC(=O)CCN`, the ring closure, yield by NMR ([1]; 36.0 h) is reported as 51%.

In the case of `CCCCCCC/C=C/C=C/C(=O)N[C@H](C(=O)N[C@H]1C[C@@H](O)CCNC(=O)/C=C/[C@H](C)NC1=O)[C@@H](C)O` [compound 2, glidobactin A], the IC50 (proteasome subunit β5 [8]) is given as 77 ± 5 nM.

Work on `CC(C)[C@@H](/C=C/C(=O)O)NC(=O)[C@@H](N)C[C@@H](O)CCN` yielded a ring closure, yield by NMR ([1]; 36.0 h) of 47%.

In the case of `C[C@@H](/C=C/C(=O)O)NC(=O)[C@@H](N)C[C@H](O)CCN`, the ring closure, yield by NMR ([1]; 36.0 h) is reported as 59%.

In the case of `CC(C)CCCCCCCCCC(=O)NC(C(=O)NC1CC(O)CCNC(=O)C=CC(C)NC1=O)C(C)O` (stereo not drawn) [compound 39], the IC50 (proteasome subunit β5 [8]) is given as 219 ± 11 nM and the “fold decrease in β5 inhibition on saturation of the fatty acid fragment” value (proteasome subunit β5 [9]; 39 versus 1, RPMI 8226 cells) is given as “ca. 14 fold”.
